Reference: patent US20230141600A1, “IMIDAZOPYRAZINE DERIVATIVES” (priority 2020, published 2023)
Counter-ions that a name gives are not always drawn.

System: Acinetobacter baumannii ATCC17978
Assay: 90% growth inhibitory concentration (IC90) determination, antimicrobial susceptibility testing
Assay type: cell-based
Conditions: ATCC17978, 90% growth inhibition, Iso-Sensitest broth, OD 600 nm over 16 h, 35±2° C., read-out: ATCC 17978 IC90
Procedure: Antimicrobial Susceptibility Testing:
90% Growth Inhibitory Concentration (IC90) Determination
The in vitro antimicrobial activity of the compounds was determined according to the following procedure:
The assay used a 10-points Iso-Sensitest broth medium to measure quantitatively the in vitro activity of the compounds against Acinetobacter baumannii ATCC17961 and ATCC17978.
Stock compounds in DMSO were serially twofold diluted (e.g. range from 50 to 0.097 μM final concentration) in 384 wells microtiter plates and inoculated with 49 μl the bacterial suspension in Iso-Sensitest medium to have a final cell concentration of ˜5×10^(5) CFU/ml in a final volume/well of 50 ul/well. Microtiter plates were incubated at 35±2° C.
Bacterial cell growth was determined with the measurement of optical density at λ=600 nm each minutes over a time course of 16 h. Growth inhibition was calculated during the logarithmic growth of the bacterial cells with determination of the concentration inhibiting 50% (IC50) and 90% (IC90) of the growth.
Table 1 provides the 90% growth inhibitory concentrations (IC90) in micromoles per liter of the compounds of present invention obtained against the strain Acinetobacter baumannii ATCC17978.

Question: For `CCc1cc(Nc2nccn3c(-c4ccc(OC)c(F)c4F)cnc23)ccc1C(=O)NCCOCC[N+](C)(C)CCCC(=O)O` [Example 53, 3-Carboxypropyl-[2-[2-[[4-[[3-(2,3-difluoro-4-methoxy-phenyl)imidazo[1,2-a]pyrazin-8-yl]amino]-2-ethyl-benzoyl]amino]ethoxy]ethyl]-dimethyl-ammonium Formate], which IC90 is on record?
Answer: 405 nM

Question: With `Cc1cc(Nc2nccn3c(-c4ccc(OC(F)F)cc4)cnc23)ccc1C(=O)N1CCN(C(=O)NCC[N+](C)(C)C)CC1` [Example 36, 2-[[4-[4-[[3-[4-(Difluoromethoxy)phenyl]imidazo[1,2-a]pyrazin-8-yl]amino]-2-methyl-benzoyl]piperazine-1-carbonyl]amino]ethyl-trimethyl-ammonium Formate] as the molecule, how does the IC90 read?
Answer: 431 nM

Question: How did the IC90 turn out when `Cc1cc(Nc2nccn3c(-c4ccc(OC(F)F)cc4)cnc23)ccc1C(=O)N(C)CCC1CC[N+](C)(C)CC1` [Example 19, 4-(2-(4-((3-(4-(difluoromethoxy)phenyl)imidazo[1,2-a]pyrazin-8-yl)amino)-N,2-dimethylbenzamido)ethyl)-1,1-dimethylpiperidin-1-ium Formate] was run?
Answer: 446 nM

Question: With `CCC[N+](CCC)(CCC)CCOCCNC(=O)c1ccc(Nc2nccn3c(-c4ccc(OCC#N)c(F)c4F)cnc23)cc1Cl` [Example 45, 2-[2-[[2-Chloro-4-[[3-[4-(cyanomethoxy)-2,3-difluoro-phenyl]imidazo[1,2-a]pyrazin-8-yl]amino]benzoyl]amino]ethoxy]ethyl-tripropyl-ammonium Iodide] as the molecule, how does the IC90 read?
Answer: 321 nM

Question: Which IC90 does the source give for `COc1ccc(-c2cnc3c(Nc4ccc(C(=O)N5CCC(C(=O)NCC[N+](C)(C)C)CC5)c(C)c4)nccn23)cc1F` [Example 27, 2-(1-(4-((3-(3-Fluoro-4-methoxyphenyl)imidazo[1,2-a]pyrazin-8-yl)amino)-2-methylbenzoyl)piperidine-4-carboxamido)-N,N,N-trimethylethanaminium Formate] here?
Answer: 249 nM

Question: For `COc1ccc(-c2cnc3c(Nc4ccc(C(=O)N5CCN(CC[N+](C)(C)C)CC5)c(Br)c4)nccn23)cc1F` [Example 14, 2-[4-[2-Bromo-4-[[3-(3-fluoro-4-methoxy-phenyl)imidazo[1,2-a]pyrazin-8-yl]amino]benzoyl]piperazin-1-yl]ethyl-trimethyl-ammonium 2,2,2-trifluoroacetate], which IC90 is on record?
Answer: 476 nM

Question: `Cc1cc(Nc2nccn3c(-c4ccc(OC(F)F)cc4)cnc23)ccc1C(=O)N1CCN(C(=O)N2CCOC(C[N+](C)(C)C)C2)CC1` (stereo not shown) [Example 33, [4-[4-[4-[[3-[4-(Difluoromethoxy)phenyl]imidazo[1,2-a]pyrazin-8-yl]amino]-2-methyl-benzoyl]piperazine-1-carbonyl]morpholin-2-yl]methyl-trimethyl-ammonium Formate] was tested. Which IC90 did it give?
Answer: 996 nM

Question: Which IC90 does the source give for `CCc1cc(Nc2nccn3c(-c4ccc(OC)c(F)c4F)cnc23)ccc1C(=O)NCCOCC[N+](CC)(CC)CC` [Example 40, 2-(2-(4-((3-(2,3-Difluoro-4-methoxyphenyl)imidazo[1,2-a]pyrazin-8-yl)amino)-2-ethylbenzamido)ethoxy)-N,N,N-triethylethan-1-aminium Formate] here?
Answer: 165 nM

Question: For `CN(CCC1CC[N+](C)(C)CC1)C(=O)c1ccc(Nc2nccn3c(-c4ccc(OCC#N)c(F)c4F)cnc23)cc1Cl` [Example 38, 2-Chloro-4-[[3-[4-(cyanomethoxy)-2,3-difluoro-phenyl]imidazo[1,2-a]pyrazin-8-yl]amino]-N-[2-(1,1-dimethylpiperidin-1-ium-4-yl)ethyl]-N-methyl-benzamide 2,2,2-trifluoroacetate], which IC90 is on record?
Answer: 213 nM

System: Acinetobacter baumannii ATCC 17978
Assay: Minimal inhibitory concentration (MIC) determination, broth microdilution (CLSI M07-A10)
Assay type: cell-based
Conditions: ATCC17978, lowest concentration for complete growth inhibition, 18-24 hours at 35±2° C., read-out: ATCC 17978 MIC
Procedure: Minimal Inhibitory Concentration (MIC) and MIC90 Determination:
The MIC of antibacterial compounds against multiple species and strains was determined using the broth microdilution method according to M07-A10 Clinical and Laboratory Standards Institute (CLSI) guidelines (CLSI (2015) Methods for dilution antimicrobial susceptibility tests for bacteria that grow aerobically; Approved Standard, Tenth Edition. CLSI Document M7-A10 (ISBN 1-56238-987-4). Wayne, Pa.: Clinical and Laboratory Standards Institute, 19087, USA), using the appropriate broth medium. In short, the compound plates were prepared by dispensing 100 μl of each stock solution in the first well of a 96 well microtiter plate (MTP) at a concentration 100-fold higher than the final concentration desired in broth. Eleven serial 2-fold dilutions of the highest concentration were made in DMSO for new compounds and in water (or appropriate solution) for reference compounds (CLSI (2017) Performance Standards for Antimicrobial Susceptibility Testing; […] Informational Supplement. CLSI Document M100-S27, CLSI, Wayne, Pa. 19087, USA). 1 μL of each well was transferred in a new MTP, which served as the test plate by subsequent inoculation. This bacterial suspension was prepared from strains that were first sub-cultured on agar plates and incubated for 18-24 hours as appropriate. Following incubation, the inoculum was prepared from isolated colonies and adjusted to 0.5 McFarland turbidity standard (1 to 2×10^8 Colony Forming Units (CFU)/mL) in 0.9% saline. The bacterial suspension was then diluted 1:200 in appropriate sterile medium and within 15 minutes 100 μL/well were dispensed. Negative controls (lack of bacterial cells) and growth control wells (lack of compound) were included in all plates. MTPs were incubated for 18-24 hours at 35±2° C. in ambient air. The MIC value of each compound, expressed as μg/mL, was determined as the lowest concentration required for complete growth inhibition (no visible growth). MIC90 and MIC50 values were defined as the lowest concentration of the antibacterial compound at which 90% and 50% of the strains were inhibited.
Table 3 provides the MIC's of particular compounds of the present invention obtained against the strain Acinetobacter baumannii ATCC 17978, expressed as μg/mL.

Question: How did the MIC turn out when `CCc1cc(Nc2nccn3c(-c4ccc(OC(F)F)c(F)c4F)cnc23)ccc1C(=O)N[C@@H](C)CNC(=O)C1CC[N+](C)(CC2CNC2)CC1.O=C[O-]` (stereo partly drawn) [Example 114, 1-(Azetidin-3-ylmethyl)-N-[(2S)-2-[[4-[[3-[4-(difluoromethoxy)-2,3-difluoro-phenyl]imidazo[1,2-a]pyrazin-8-yl]amino]-2-ethyl-benzoyl]amino]propyl]-1-methyl-piperidin-1-ium-4-carboxamide Formate] was run?
Answer: 17.8 µg/mL

Question: How did the MIC turn out when `CCc1cc(Nc2nccn3c(-c4ccc(OC(F)F)c(F)c4F)cnc23)ccc1C(=O)N1CCC(C(=O)N2CC3(C2)C[N+](C)(CC2CNC2)C3)CC1.O=C([O-])C(F)(F)F.O=CO` [Example 99, [4-[2-(azetidin-3-ylmethyl)-2-methyl-6-aza-2-azoniaspiro[3.3]-6-carbonyl]-1-piperidyl]-[4-[[3-[4-(difluoromethoxy)-2,3-difluoro-phenyl]imidazo[1,2-a]pyrazin-8-yl]amino]-2-ethyl-phenyl]methanone formic acid 2,2,2-trifluoroacetate (Mixed Salt)] was run?
Answer: 0.92 µg/mL

Question: Which MIC does the source give for `CCc1cc(Nc2nccn3c(-c4ccc(OC)c(F)c4F)cnc23)ccc1C(=O)NCC[N+]1(C)CCC(C(N)=O)C1.O=C([O-])C(F)(F)F` (stereo not shown) [Example 144, 1-[2-[[4-[[3-(2,3-Difluoro-4-methoxy-phenyl)imidazo[1,2-a]pyrazin-8-yl]amino]-2-ethyl-benzoyl]amino]ethyl]-1-methyl-pyrrolidin-1-ium-3-carboxamide 2,2,2-trifluoroacetate] here?
Answer: 3.62 µg/mL

Question: `CCc1cc(Nc2nccn3c(-c4ccc(OC(F)F)c(F)c4F)cnc23)ccc1C(=O)N1CCC(C(=O)NCC2CC[N+](C)(CC3CNC3)C2)CC1.O=C([O-])C(F)(F)F.O=CO` (stereo not shown) [Example 98, N-[[1-(Azetidin-3-ylmethyl)-1-methyl-pyrrolidin-1-ium-3-yl]methyl]-1-[4-[[3-[4-(difluoromethoxy)-2,3-difluoro-phenyl]imidazo[1,2-a]pyrazin-8-yl]amino]-2-ethyl-benzoyl]piperidine-4-carboxamide formate/2,2,2-trifluoroacetate (Mixed Salt)] was tested. Which MIC did it give?
Answer: 0.92 µg/mL

Question: Which MIC does the source give for `CCc1cc(Nc2nccn3c(-c4ccc(OC(F)F)c(F)c4F)cnc23)ccc1C(=O)N1CCC(C(=O)N2C[C@@H]3C[C@H]2C[N+]3(C)CC2CNC2)CC1.O=C([O-])C(F)(F)F.O=CO` (mixture of isomers) [Example 100, [4-[[3-[4-(Difluoromethoxy)-2,3-difluoro-phenyl]imidazo[1,2-a]pyrazin-8-yl]amino]-2-ethyl-phenyl]-[4-[rac-(1S,4S)-5-(azetidin-3-ylmethyl)-5-methyl-2-aza-5-azoniabicyclo[2.2.1]heptane-2-carbonyl]-1-piperidyl]methanone; formic acid; 2,2,2-trifluoroacetate (Mixed Salt)] here?
Answer: 1.84 µg/mL

Question: With `CCc1cc(Nc2nccn3c(-c4ccc(Oc5cnn(C)n5)c(F)c4F)cnc23)ccc1C(=O)NCC1CC[N+](C)(CC2CCNC2)CC1.O=C[O-]` (stereo not shown) [Example 6, 4-[[3-[2,3-difluoro-4-(2-methyltriazol-4-yl)oxy-phenyl]imidazo[1,2-a]pyrazin-8-yl]amino]-2-ethyl-N-[[1-methyl-1-(pyrrolidin-3-ylmethyl)piperidin-1-ium-4-yl]methyl]benzamide Formate] as the molecule, how does the MIC read?
Answer: 8.57 µg/mL

Same assay, conditions: ATCC17978, read-out: ATCC 17978 MIC

Question: How did the MIC turn out when `CCc1cc(Nc2nccn3c(-c4ccc(OC(F)F)c(F)c4F)cnc23)ccc1C(=O)N1CCC(C(=O)N2CC3CC(C2)[N+]3(C)CC2CNC2)CC1.O=C(O)C(F)(F)F.O=C([O-])C(F)(F)F.O=CO` (stereo not shown) [Example 101, [4-[6-(Azetidin-3-ylmethyl)-6-methyl-3-aza-6-azoniabicyclo[3.1.1]heptane-3-carbonyl]-1-piperidyl]-[4-[[3-[4-(difluoromethoxy)-2,3-difluoro-phenyl]imidazo[1,2-a]pyrazin-8-yl]amino]-2-ethyl-phenyl]methanone formate 2,2,2-trifluoroacetate (Mixed Salt)] was run?
Answer: 1.84 µg/mL
